Test results from patent publication US12054449B2, “Phenylcarbamate crystalline form and method for manufacturing the same” (BIO-PHARM SOLUTIONS CO., LTD., priority 2021, dated 2024).
“Also recorded” adds a separate entry of the source.

How the values were obtained:
Format in all cases: physicochemical
[1] = Polymorphic screening with solvents and solvent/antisolvent
[2] = Log D (shake flask at pH 5) and Log P
[3] = Gravimetric vapor sorption (GVS)
Experimental: Sorption isotherms were obtained using an SMS DVS intrinsic water absorption analyzer controlled by SMS Analysis Suite software. A sample temperature was maintained at 25° C. throughout. Humidity was controlled by a mixed stream of dry and wet nitrogen with a total flow rate of 200 mL/min. The relative humidity was measured with a calibrated Rotronic probe (dynamic range: 1.0-100% RH) located near the sample. The weight change (mass relaxation) of the sample as a function of % RH was continuously monitored using a microbalance (accuracy±0.005 mg). 5 to 20 mg of the sample was stored in a prepared stainless steel mesh basket under atmospheric conditions.

- Result ([1]; Exp. 1, 2-propanol 60 ul / Toluene 100 ul, Shaken RT, refrigerated): Soluble
- Initial result ([1]; Exp. 1, solvent 2-propanol 60 ul, anti-solvent Toluene 100 ul): Soluble
- Result ([1]; Exp. 2, 2-propanol 60 ul / Heptane 200 ul, Shaken RT, refrigerated): Soluble
- Initial result ([1]; Exp. 2, solvent 2-propanol 60 ul, anti-solvent Heptane 200 ul): Soluble
- Result ([1]; Exp. 3, 2-propanol 60 ul / Diethyl ether 100 ul, Shaken RT, refrigerated): Soluble
- Initial result ([1]; Exp. 3, solvent 2-propanol 60 ul, anti-solvent Diethyl ether 100 ul): Soluble
- Result ([1]; Exp. 4, 2-propanol 60 ul / TBME 200 ul, Shaken RT, refrigerated): Soluble
- Initial result ([1]; Exp. 4, solvent 2-propanol 60 ul, anti-solvent TBME 200 ul): Soluble
- Result ([1]; Exp. 5, acetone 60 ul / Toluene 100 ul, Shaken RT, refrigerated): Soluble
- Initial result ([1]; Exp. 5, solvent acetone 60 ul, anti-solvent Toluene 100 ul): Soluble
- Result ([1]; Exp. 6, acetone 60 ul / Heptane 175 ul, notes: oil): oil
- Initial result ([1]; Exp. 6, solvent acetone 60 ul, anti-solvent Heptane 175 ul): Cloudy
- Result ([1]; Exp. 7, acetone 60 ul / Diethyl ether 100 ul, Shaken RT, refrigerated): Soluble
- Initial result ([1]; Exp. 7, solvent acetone 60 ul, anti-solvent Diethyl ether 100 ul): Soluble
- Result ([1]; Exp. 8, acetone 60 ul / TBME 100 ul, Shaken RT, refrigerated): Soluble
- Initial result ([1]; Exp. 8, solvent acetone 60 ul, anti-solvent TBME 100 ul): Soluble
- Result: crystalline form obtained (XRPD) ([1]; Exp. 9, chloroform 60 ul / Toluene 100 ul): Pattern 9
- Result ([1]; Exp. 9, chloroform 60 ul / Toluene 100 ul, Shaken RT, solid XRPD): Crystalline
- Initial result ([1]; Exp. 9, solvent chloroform 60 ul, anti-solvent Toluene 100 ul): Precipitate
- Result: crystalline form obtained (XRPD) ([1]; Exp. 10, chloroform 60 ul / Heptane 25 ul): Pattern 8
- Result ([1]; Exp. 10, chloroform 60 ul / Heptane 25 ul, Shaken RT, solid XRPD): Crystalline
- Initial result ([1]; Exp. 10, solvent chloroform 60 ul, anti-solvent Heptane 25 ul): Precipitate
- Result ([1]; Exp. 11, chloroform 60 ul / Diethyl ether 100 ul, Shaken RT, refrigerated): Soluble
- Initial result ([1]; Exp. 11, solvent chloroform 60 ul, anti-solvent Diethyl ether 100 ul): Soluble
- Result ([1]; Exp. 12, chloroform 60 ul / TBME 100 ul, Shaken RT, refrigerated): Soluble
- Initial result ([1]; Exp. 12, solvent chloroform 60 ul, anti-solvent TBME 100 ul): Soluble
- Result: crystalline form obtained (XRPD) ([1]; Exp. 13, DCM 80 ul / Toluene 100 ul): Pattern 9
- Result ([1]; Exp. 13, DCM 80 ul / Toluene 100 ul, Shaken RT, solid XRPD): Crystalline
- Initial result ([1]; Exp. 13, solvent DCM 80 ul, anti-solvent Toluene 100 ul): Precipitate
- Result ([1]; Exp. 14 (second line so numbered), DCM 80 ul / Diethyl ether 100 ul, Shaken RT, refrigerated): Soluble
- Initial result ([1]; Exp. 14 (second line so numbered), solvent DCM 80 ul, anti-solvent Diethyl ether 100 ul): Soluble
- Result: crystalline form obtained (XRPD) ([1]; Exp. 14, DCM 80 ul / Heptane 50 ul): Pattern 8
- Result ([1]; Exp. 14, DCM 80 ul / Heptane 50 ul, Shaken RT, solid XRPD): Crystalline
- Initial result ([1]; Exp. 14, solvent DCM 80 ul, anti-solvent Heptane 50 ul): Precipitate
- Result ([1]; Exp. 16, DCM 80 ul / TBME 100 ul, Shaken RT, refrigerated): Soluble
- Initial result ([1]; Exp. 16, solvent DCM 80 ul, anti-solvent TBME 100 ul): Soluble
- Result: crystalline form obtained (XRPD) ([1]; Exp. 18, ethyl acetate 60 ul / Heptane 100 ul): Pattern 11
- Result ([1]; Exp. 18, ethyl acetate 60 ul / Heptane 100 ul, Oil, then solid formed): Crystalline
- Initial result ([1]; Exp. 18, solvent ethyl acetate 60 ul, anti-solvent Heptane 100 ul): Cloudy
- Result ([1]; Exp. 19, ethyl acetate 60 ul / Diethyl ether 100 ul, Shaken RT, refrigerated): Soluble
- Initial result ([1]; Exp. 19, solvent ethyl acetate 60 ul, anti-solvent Diethyl ether 100 ul): Soluble
- Result ([1]; Exp. 20, ethyl acetate 60 ul / TBME 100 ul, Shaken RT, refrigerated): Soluble
- Initial result ([1]; Exp. 20, solvent ethyl acetate 60 ul, anti-solvent TBME 100 ul): Soluble
- Result ([1]; Exp. 21, ethyl acetate 60 ul / Pentane 225 ul, notes: Oil): Oil
- Initial result ([1]; Exp. 21, solvent ethyl acetate 60 ul, anti-solvent Pentane 225 ul): Cloudy
- Result ([1]; Exp. 22, ethyl acetate 60 ul / cyclohexane 350 ul, Shaken RT, solid XRPD): Crystalline,
- Initial result ([1]; Exp. 22, solvent ethyl acetate 60 ul, anti-solvent cyclohexane 350 ul): Precipitate
- Result ([1]; Exp. 23, ethyl acetate 60 ul / methylcyclohexane 325 ul, Shaken RT, solid XRPD): Crystalline,
- Initial result ([1]; Exp. 23, solvent ethyl acetate 60 ul, anti-solvent methylcyclohexane 325 ul): Precipitate
- Result ([1]; Exp. 24, chloroform 60 ul / Pentane 75 ul, Shaken RT, solid XRPD): Crystalline
- Initial result ([1]; Exp. 24, solvent chloroform 60 ul, anti-solvent Pentane 75 ul): Precipitate
- Result ([1]; Exp. 25, chloroform 60 ul / cyclohexane 125 ul, Shaken RT, solid XRPD): Crystalline
- Initial result ([1]; Exp. 25, solvent chloroform 60 ul, anti-solvent cyclohexane 125 ul): Precipitate
- Result ([1]; Exp. 26, chloroform 60 ul / methylcyclohexane 75 ul, Shaken RT, solid XRPD): Crystalline
- Initial result ([1]; Exp. 26, solvent chloroform 60 ul, anti-solvent methylcyclohexane 75 ul): Precipitate
- Result ([1]; Exp. 27, DCM 80 ul / Pentane 100 ul, Shaken RT, solid XRPD): Crystalline
- Initial result ([1]; Exp. 27, solvent DCM 80 ul, anti-solvent Pentane 100 ul): Precipitate
- Result ([1]; Exp. 28, DCM 80 ul / cyclohexane 50 ul, Shaken RT, solid XRPD): Crystalline
- Initial result ([1]; Exp. 28, solvent DCM 80 ul, anti-solvent cyclohexane 50 ul): Precipitate
- Result ([1]; Exp. 29, DCM 80 ul / methylcyclohexane 50 ul, Shaken RT, solid XRPD): Crystalline
- Initial result ([1]; Exp. 29, solvent DCM 80 ul, anti-solvent methylcyclohexane 50 ul): Precipitate
- Result ([1]; Exp. number not given, ethyl acetate 60 ul / Toluene 100 ul, Shaken RT, refrigerated): Soluble
- Initial result ([1]; Exp. number not given, solvent ethyl acetate 60 ul, anti-solvent Toluene 100 ul): Soluble
- logP [2]: 1.32
- logD ([2]; shake flask): 1.32
- GVS mass increase ([3]; second sorption cycle, 0-90% RH, 25° C., listed as Pattern 1): 0.14%
SMILES: C[C@H](OC(N)=O)[C@@H](O)c1ccccc1Cl [ED01748-006-001-00, 1-(2-chlorophenyl)-(S)-1-hydroxypropyl-(S)-2-carbamate]
- XRPD post GVS (change in form) ([3]; after GVS experiment): no change in morphology; also recorded: Shows no change in form by XRPD post GVS
